Measured values from ChEMBL document CHEMBL1201862, “PubChem BioAssay data set” (2004).
Active and inactive are the calls of the source.

What was measured:
[1] = target: T1, Dual specificity protein phosphatase 3 (Homo sapiens, UniProt P51452); assay: SAR VHR1 Fluorescent Assay for In Vitro dose response studies. [Related pubchem assays (depositor defined):AID1654, AID1661, AID1878, AID1992, AID2004, AID2070, AID2085]; format: functional
[2] = target: T2, Trace amine-associated receptor 1 (Homo sapiens, UniProt Q96RJ0); assay: Counterscreen for agonists of the human trace amine associated receptor 1 (hTAAR1): Fluorescence-based cell-based high throughput dose response assay to identify hTAAR1 agonist that also desensitize TAAR1 receptor response.; format: functional
T2 sequence (Q96RJ0 whole entry): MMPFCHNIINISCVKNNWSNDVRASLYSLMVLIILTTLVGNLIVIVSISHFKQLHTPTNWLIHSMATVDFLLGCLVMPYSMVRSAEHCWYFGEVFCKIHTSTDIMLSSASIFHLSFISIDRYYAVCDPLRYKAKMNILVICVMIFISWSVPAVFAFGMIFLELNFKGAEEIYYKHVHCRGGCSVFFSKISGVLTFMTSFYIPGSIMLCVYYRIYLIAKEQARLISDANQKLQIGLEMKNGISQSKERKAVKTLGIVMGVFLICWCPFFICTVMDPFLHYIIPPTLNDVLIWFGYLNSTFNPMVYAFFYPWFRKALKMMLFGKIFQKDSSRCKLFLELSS

[3] = target: T3, Dual specificity protein phosphatase 6 (Rattus norvegicus, UniProt Q64346); assay: SAR analysis of inhibitors of MKP-3 - Set 2. [Related pubchem assays (depositor defined):AID1055, AID1661, AID425, AID553, AID566]; format: functional
T3 sequence (Q64346 whole entry): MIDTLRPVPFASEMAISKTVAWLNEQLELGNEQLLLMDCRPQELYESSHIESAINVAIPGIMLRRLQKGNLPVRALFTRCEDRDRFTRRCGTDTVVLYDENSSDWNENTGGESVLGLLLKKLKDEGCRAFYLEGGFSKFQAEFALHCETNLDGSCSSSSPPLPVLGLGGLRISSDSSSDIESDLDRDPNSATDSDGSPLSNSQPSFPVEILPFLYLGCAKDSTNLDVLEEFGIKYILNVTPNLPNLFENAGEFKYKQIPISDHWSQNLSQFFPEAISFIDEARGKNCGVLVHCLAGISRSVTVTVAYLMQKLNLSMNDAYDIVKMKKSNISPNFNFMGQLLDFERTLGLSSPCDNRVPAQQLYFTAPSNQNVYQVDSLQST

[4] = target: Tyrosine-protein phosphatase non-receptor type 11 (Homo sapiens, UniProt Q06124); assay: PTPN11 enzyme inhibitors – biochemical, selectivity assay for STEP inhibitor project, dose response (AID 602367); format: functional; conditions: read-out: IC50_Mean
Chain of Tyrosine-protein phosphatase non-receptor type 11 (Q06124 whole entry): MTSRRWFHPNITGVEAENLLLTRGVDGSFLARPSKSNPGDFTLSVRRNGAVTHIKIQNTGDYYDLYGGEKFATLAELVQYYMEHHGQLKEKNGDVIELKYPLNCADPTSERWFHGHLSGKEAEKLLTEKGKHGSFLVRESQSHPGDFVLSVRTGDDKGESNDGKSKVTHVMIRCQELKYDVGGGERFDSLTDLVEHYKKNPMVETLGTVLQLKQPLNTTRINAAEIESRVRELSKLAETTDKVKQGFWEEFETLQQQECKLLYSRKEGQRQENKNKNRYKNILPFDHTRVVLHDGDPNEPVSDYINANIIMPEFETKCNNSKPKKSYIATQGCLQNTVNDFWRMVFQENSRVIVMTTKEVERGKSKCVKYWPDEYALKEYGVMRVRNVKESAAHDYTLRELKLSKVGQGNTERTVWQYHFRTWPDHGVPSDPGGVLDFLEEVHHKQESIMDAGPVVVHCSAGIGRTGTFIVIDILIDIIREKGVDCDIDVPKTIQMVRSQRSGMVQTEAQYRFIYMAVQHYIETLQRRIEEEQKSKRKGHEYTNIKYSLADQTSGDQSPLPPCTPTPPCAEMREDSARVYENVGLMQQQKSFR

[5] = target: Tyrosine-protein phosphatase non-receptor type 5 (Homo sapiens, UniProt P54829); assay: PTPN5 enzyme inhibition – biochemical, fluorescence intensity, uHTS hits, confirmation (AID 602372); format: functional; conditions: read-out: IC50_Mean
Chain of Tyrosine-protein phosphatase non-receptor type 5 (P54829 whole entry): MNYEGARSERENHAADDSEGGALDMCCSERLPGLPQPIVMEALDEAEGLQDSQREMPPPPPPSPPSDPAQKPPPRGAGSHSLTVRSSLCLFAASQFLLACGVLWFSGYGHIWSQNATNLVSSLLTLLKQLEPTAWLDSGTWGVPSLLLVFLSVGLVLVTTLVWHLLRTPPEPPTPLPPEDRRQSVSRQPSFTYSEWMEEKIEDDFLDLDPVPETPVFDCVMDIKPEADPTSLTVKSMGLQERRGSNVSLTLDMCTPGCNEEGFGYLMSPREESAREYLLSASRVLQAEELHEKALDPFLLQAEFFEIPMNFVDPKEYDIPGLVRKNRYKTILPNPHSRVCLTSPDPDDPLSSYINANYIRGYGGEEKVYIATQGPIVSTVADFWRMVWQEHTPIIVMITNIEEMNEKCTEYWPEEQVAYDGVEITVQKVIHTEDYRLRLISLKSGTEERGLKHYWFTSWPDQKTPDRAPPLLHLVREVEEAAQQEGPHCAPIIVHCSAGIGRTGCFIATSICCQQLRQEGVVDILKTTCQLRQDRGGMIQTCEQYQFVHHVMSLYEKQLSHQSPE

[6] = target: T1, Dual specificity protein phosphatase 3; assay: SAR VHR1 absorbance Assay for In Vitro dose response studies. [Related pubchem assays (depositor defined):AID1654, AID1661, AID1878, AID1992, AID2004]
[7] = target: T3, Dual specificity protein phosphatase 6; assay: inhibition of rat DUSP6 enzyme activity – biochemical, in vitro, primary screen (AID 425)
[8] = target: T1, Dual specificity protein phosphatase 3; assay: VHR1 phosphatase inhibitors, biochemical (AID 1878)
[9] = target: T3, Dual specificity protein phosphatase 6; format: functional
[10] = target: T2, Trace amine-associated receptor 1; assay: Fluorescence-based cell-based high throughput dose response assay to identify agonists of the human trace amine associated receptor 1 (TAAR1).; format: functional
cells [11] = format: functional, cell-based
[12] = target: T1, Dual specificity protein phosphatase 3; assay: VHR1 phosphatase inhibitors, primary screen, biochemical, absorbance, uHTS (AID 1654)
[13] = target: T1, Dual specificity protein phosphatase 3; assay: VHR phosphatase inhibition, dose response, selectivity assay for STEP inhibitor project, biochemical (AID 602374); format: functional; conditions: read-out: IC50_Mean
[14] = target: T4, Tyrosine-protein phosphatase non-receptor type 7 (Homo sapiens, UniProt P35236); assay: redox-active compounds inhibiting HePTP phosphatase – biochemical, fluorescence, mechanism study (AID 2068); format: functional
T4 sequence (P35236 whole entry): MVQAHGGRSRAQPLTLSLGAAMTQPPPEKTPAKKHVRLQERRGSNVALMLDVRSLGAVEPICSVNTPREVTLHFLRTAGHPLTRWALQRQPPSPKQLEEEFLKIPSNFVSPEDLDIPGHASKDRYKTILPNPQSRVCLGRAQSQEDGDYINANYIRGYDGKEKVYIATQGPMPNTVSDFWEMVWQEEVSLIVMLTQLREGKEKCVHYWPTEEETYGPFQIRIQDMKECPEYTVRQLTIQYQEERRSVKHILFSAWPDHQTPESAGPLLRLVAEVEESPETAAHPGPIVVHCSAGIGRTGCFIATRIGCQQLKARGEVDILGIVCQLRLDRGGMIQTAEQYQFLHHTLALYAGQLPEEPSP

cells [15] = format: functional, cell-based; remark: listed apart in the source
[16] = target: T4, Tyrosine-protein phosphatase non-receptor type 7; assay: SAR analysis of chemical inhibitors of HePTP using a Fluorescent assay - Set 2. [Related pubchem assays (depositor defined):AID1059, AID1077, AID1661, AID2085, AID521]; format: functional
[17] = target: T1, Dual specificity protein phosphatase 3; assay: SAR VHR1 Fluorescent Assay for In Vitro dose response studies Set 2. [Related pubchem assays (depositor defined):AID1654, AID1661, AID1878]; format: functional
[18] = HEK-293T cell viability reduction – luminescence, B-cell screen hits, cytotoxicity control for BCR NF-kB inhibitor project, dose response (AID 489021); format: functional, cell-based;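 also: HEK-293T cells carrying an NF-kB luciferase reporter; cells exposed to compound for about 14 hours before viability readout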
Jurkat = assay: SAR Analysis of small molecule inhibitors of […] specific antigen receptor-induced NF-kB activation in a Jurkat cell line using a luminescence assay - Set 3. [Related pubchem assays (depositor defined):AID435022, AID435025, AID465]; format: functional, cell-based; conditions: Homo sapiens
[19] = luciferase reporter signal suppression in cells – H4 neuroglioma cells, luminescence, dose response (AID 1990); format: functional, cell-based
[20] = Luminescence Cell-Based Dose Response HTS to Identify Inhibitors of 5'UTR Stem-Loop Driven Prion Protein mRNA Translation in H4 Neuroglioblastoma Cells. [Related pubchem assays: 1827 (Project Summary), 1813 (Primary HTS)]; format: functional
cells [21] = format: functional, cell-based; remark: listed apart in the source
HEK293 [22] = assay: SAR Analysis of small molecule inhibitors of B-cell specific antigen receptor-induced NF-kB activation in a HEK-293T cell line using a luminescence assay - Set 2. [Related pubchem assays (depositor defined):AID435022, AID435025, AID489021]; format: functional, cell-based; conditions: Homo sapiens
[23] = Luminescence-based counterscreen assay for KLF5 inhibitors: dose response cell-based high throughput screening assay to identify cytotoxic compounds using the IEC-6 intestinal epithelial cell line. [Related pubchem assays: 1700 (Primary screen.), 1834 (Confirmation screen.), 1858 (Summary AID.), 1905 (Counterscreen.)]; format: functional
HEK293 [24] = assay: HEK293T cell viability loss, resazurin readout – resazurin fluorescence, cytotoxicity control for NF-kB activator project, SAR follow-up (AID 493251); format: functional, cell-based; conditions: Homo sapiens
[25] = alpha-synuclein stem-loop translation blockers – luminescence, H4 neuroglioblastoma cells, dose confirmation, confirmation (AID 2454); format: functional, cell-based;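 also: H4 neuroglioblastoma cells carrying an alpha-synuclein 5'UTR luciferase reporter; potency for inhibition of the luciferase signal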
[26] = luciferase reporter signal reduction – luminescence, H4-C neuroglioblastoma cells, dose response (AID 2458); format: functional, cell-based;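 also: H4 neuroglioblastoma cells stably carrying a luciferase reporter gene fusion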
[27] = alpha-synuclein stem-loop luciferase translation blockers – H4 neuroglioma cells, luminescence, confirmation (AID 1988); format: functional, cell-based
[28] = viability of HCT116 lacking mutant beta-catenin – cell-based, human colon tumor, dose response (AID 1045); format: functional;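 also: HCT116 colon tumor cells with beta catenin knocked out; cells exposed to compound for 60 hours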
[29] = viability of PTEN-deleted HCT116 cells – cell-based, HCT116 PTEN knockout, dose response (AID 1047); format: functional;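 also: HCT116 colon tumor cells with PTEN knocked out; cells exposed to compound for 60 hours before readout; potency for loss of cell viability measured by luminescence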
A-375 [30] = assay: proliferation inhibition in MITF-low A375 cells – cell-based, cherry-pick samples, set 2, counter-screen for MITF modulator project, dose response (AID 540335); format: functional; conditions: Homo sapiens
A-375 [31] = assay: MITF: Counter assay: A375 proliferation Measured in Cell-Based System Using Plate Reader - 2084-03_Inhibitor_Dose_DryPowder_Activity. [Related pubchem assays (depositor defined):AID488944]; format: functional; conditions: Homo sapiens

T1 sequence (P51452 whole entry): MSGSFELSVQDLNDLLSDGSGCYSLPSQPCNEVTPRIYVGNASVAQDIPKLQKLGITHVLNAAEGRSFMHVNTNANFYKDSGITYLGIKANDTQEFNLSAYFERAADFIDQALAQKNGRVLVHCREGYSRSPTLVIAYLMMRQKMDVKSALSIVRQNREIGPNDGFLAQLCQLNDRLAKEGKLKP

Question: With `S=C(NCCc1ccccc1)Nc1c(Cl)cccc1Cl` as the compound, how does the IC50 [1] read?
Answer: > 99 µM (inactive)

Question: What about the IC50 [2] of the same compound?
Answer: 4.11 µM (active)

Question: What about the IC50 [3] of the same compound?
Answer: > 100 µM (inactive)

Question: And the IC50 [4]?
Answer: 5.76 µM (active)

Question: And the IC50 [5]?
Answer: 14.5 µM (active)

Question: What about the IC50 [6] of the same compound?
Answer: 0.342 µM (active)

Question: And the IC50 [7]?
Answer: > 158 µM (not active)

Question: And the IC50 [8]?
Answer: 4.31 µM (active)

Question: And the IC50 [9]?
Answer: > 99 µM (inactive)

Question: What about the EC50 [10] of the same compound?
Answer: 0.565 µM (active)

Question: And the IC50 (cells [11])?
Answer: > 29.9 µM (inactive)

Question: And the IC50 [12]?
Answer: 2.44 µM (active)

Question: What about the IC50 [13] of the same compound?
Answer: 1.12 µM (active)

Question: What about the IC50 [14] of the same compound?
Answer: 0.0345 µM (active)

Question: What about the EC50 (cells [15]) of the same compound?
Answer: > 29.9 µM (inactive)

Question: What about the IC50 [16] of the same compound?
Answer: 0.447 µM (active)

Question: And the IC50 [17]?
Answer: 0.347 µM (active)

Question: For `CC(C)(C)c1ccc(-c2noc(CCC(=O)Nc3cccnc3)n2)cc1`, which IC50 [18] is on record?
Answer: > 80 µM (inactive)

Question: And the IC50 (Jurkat)?
Answer: 0.435 µM (active)

Question: What about the EC50 [19] of the same compound?
Answer: < 0.1 µM (active)

Question: What about the EC50 [20] of the same compound?
Answer: < 0.1 µM (active)

Question: And the EC50 (cells [21])?
Answer: 0.321 µM (active)

Question: What about the IC50 (HEK293 [22]) of the same compound?
Answer: 0.47 µM (active)

Question: And the IC50 [23]?
Answer: > 39.8 µM (not active)

Question: And the IC50 (HEK293 [24])?
Answer: 20.5 µM (inactive)

Question: And the EC50 [25]?
Answer: 0.774 µM (active)

Question: And the EC50 [26]?
Answer: 1.18 µM (active)

Question: What about the EC50 [27] of the same compound?
Answer: < 0.1 µM (active)

Question: With `CN(C)CCNC(=O)/C(=C/c1ccc(-c2ccc(Cl)cc2)o1)NC(=O)c1ccccc1` as the compound, how does the EC50 [28] read?
Answer: 9.77 µM (active)

Question: And the EC50 [29]?
Answer: 10.9 µM (active)

Question: And the AC50 (A-375 [30])?
Answer: > 11 µM (active)

Question: And the AC50 (A-375 [31])?
Answer: > 11 µM (active)
